Where “and” joins values, the source holds several entries; their conditions need not be identical. Equal entries are not always repeated.
Key:
[1] = tested on: adult rheumatoid arthritis patients naive to MTX; assay: Prospective longitudinal MTX dose escalation study: response (DAS28, EULAR criteria, physician's assessment VAS) (Example 2)
[2] = tested on: patients with rheumatoid arthritis; assay: Cross-sectional study: clinical efficacy by disease activity score DAS28 (Example 1); type: in vivo, human
Description: (§1) Study design: The study was cross-sectional at two investigational California sites (Cedars Sinai, Department of Rheumatology; and UCLA, Department of Rheumatology). […] Concomitant disease-modifying arthritis agents (e.g., sulphasalazine, hydroxychloroquine, leflunomide), low-dose corticosteroids (<10 mg day), and folic acid supplementation were allowed. […] Patient demographics were collected at the time of enrollment in the study. At a single study visit, EDTA blood was drawn and shipped overnight to Prometheus Laboratories in San Diego, Calif.
(§2) Clinical status assessment: Patient clinical and demographic characteristics were collected at the single study visit. Clinical efficacy was assessed using the disease activity score (DAS28), which includes the number of tender and swollen joint counts (n=28), the erythrocyte sedimentation rate, and the patient's global assessment of disease activity.

[3] = tested on: RBC folate polyglutamates; assay: RBC folate polyglutamate levels by radio-assay (Example 2); type: in vivo, human; details: for RBC folate PG decrease versus baseline / RBC folate PG levels: fourth visit
Description: Laboratory measurements: Red blood cell (RBC) long-chain MTXPG concentrations (MTXPG3; nmol/L RBC) were measured using a post-column photo-oxidation HPLC-fluorometry technique as described in, e.g., Dervieux et al., Clin. Chem., 49:1632-1641 (2003). RBC folate polyglutamates (Folate PGs; expressed as nmol/L RBCs) were measured using a radio-assay (Biorad; Hercules, Calif.). The MTHFR C677T polymorphism can be measured with a real-time TaqMan allelic discrimination assay as described above. The MS A2756G polymorphism, which results in an aspartic acid to glycine substitution at codon 919 of MS, can be measured with a real-time TaqMan allelic discrimination assay using the following primers and fluorogenic 3′-minor groove binding probes: forward primer: 5′-GAATACTTTGAGGAAATCATGGAAGA-3′ (SEQ ID NO:17); reverse primer: 5′-TCTGTTTCTACCACTTACCTTGAGAGACT-3′ (SEQ ID NO:18); wild-type fluorescent probe: 5′-FAM-AGA CAG GAC CAT TAT G-MGB-3′ (SEQ ID NO:19); and mutant fluorescent probe: 5′-VIC-ACA GGG CCA TTA TG-MGB-3′ (SEQ ID NO:20).

[4] = tested on: adult rheumatoid arthritis patients naive to MTX; assay: Prospective longitudinal MTX dose escalation study: occurrence of side-effects (Example 2)
Description: The clinical assessment at each study visit consisted of a tender and swollen joint count, a patient's assessment of disease activity (10 cm-VAS), a physician's assessment of disease activity (10 cm-VAS), and a C-Reactive protein (CRP) determination.
The occurrence of side-effects was recorded at the time of each study visit. […] Leukocyte count, hemoglobin, and liver AST were measured on the day of the study visit using standard laboratory methods. […] All data were captured on Case Report Forms using a standardized questionnaire. This consisted of the presence of nausea, dyspepsia, diarrhea, headache, lethargy, stomatitis, alopecia, and pulmonary toxicity (e.g., cough, dyspnea, pulmonary infiltrates). Patients were evaluated by the same physician at the time of each study visit. Toxicities were graded as “mild,” “moderate,” and “severe.” EDTA whole blood was drawn from each patient and shipped overnight from Albany, N.Y. to Prometheus Laboratories in San Diego, Calif.
Toxicities were analyzed using the percentage of 4-6 week periods with side-effects per patient. […] Statistical analyses were performed using the software package SAS (Release 8.2; SAS Institute Inc.; Cary, N.C.).

[5] = tested on: patients with rheumatoid arthritis; assay: Cross-sectional study: occurrence of side-effects under low dose MTX therapy (Example 1); type: in vivo, human
Description: as §1, §2
Statistical analysis: The analysis consisted of multivariate logistic regression with the occurrence of side-effects as the dependent variable.

[6] = visit 4, generalized linear model
[7] = visit 6, generalized linear model
[8] = MS 2756A/A vs. MS2756 A/G or G/G
[9] = MTHFR 1298A/C or C/C vs. MTHFR 1298A/A
[10] = MTRR 66G/G vs. MTRR 66A/A or A/G
[11] = 97 patients, single study visit

## CN(Cc1cnc2nc(N)nc(N)c2n1)c1ccc(C(=O)N[C@@H](CCC(=O)O)C(=O)O)cc1 [MTX, methotrexate]
[1]; MTHFR 677T/T genotype
  Estimate, lower decrease in physician's assessment in disease activity: 0.367
[1]; MTHFR 677T/T genotype, visit 4
  OR, lower likelihood of response to therapy: 9.9
[1]; RBC MTXPG3
  OR, therapeutic response at about 6 months when MTXPG3 greater than about 20 nmol/L RBCs at about 3 months: 8.0
[1]; TS *2/*2 genotype
  Estimate, lower decrease in physician's assessment in disease activity: 0.360
[1]; TS *2/*2 genotype, visit 4
  OR, lower likelihood of response to therapy: 3.9
[1]; dose escalation 7.5 to 15 mg/week with MTXPG increase of 40 nmol/L RBCs at visit 4, from model equation
  Decrease in physician's assessment of disease activity compared to baseline: 19.8%
[1]; visit 4
  Patients responding to therapy: 77%
  Patients responding to therapy, number: 36
  Patients with good response, number: 15
  Patients with moderate response, number: 11
  Patients with poor response (EULAR): 23%
[1]; visit 4 (baseline 5.1)
  DAS28, median: 3.5
[1]; visit 4 (baseline 5.6)
  Physician's assessment of disease activity 10 cm VAS, median: 2.6
[1]; [6]
  Estimate, RBC MTXPG level vs percentage change from baseline in physician's assessment VAS: −0.013±0.004
  Estimate, weekly MTX dose vs percentage change from baseline in physician's assessment VAS: 0.043±0.017
[1]; visit 4, generalized linear model, FIG. 3A
  Estimate, RBC MTXPG formation in responders vs non-responders: 0.034±0.020
[1]; visit 4, median dose 15 mg/week
  Patients with poor response (EULAR), number: 11
[1]; visit 4, n=47
  Median decrease (from baseline) in DAS28: 36%
[1]; visit 4, n=48
  Median decrease (from baseline) in physician's assessment of disease activity VAS: 47%
[1]; visit 6
  Estimate, MTX dose vs percentage change from baseline in DAS28: 0.011±0.051
  Estimate, formation of RBC MTXPGs vs percentage change from baseline in DAS28: −0.003±0.001
  Non-responders: 9%
  Responders with moderate response, number: 10
  Responders, number of patients: 31
[1]; visit 6 (baseline 5.1)
  DAS28, median: 3.1
[1]; visit 6 (baseline 5.6)
  Physician's assessment of disease activity 10 cm VAS, median: 2.1
[1]; [7]
  Estimate, RBC MTXPG levels vs percentage change from baseline in physician's assessment of disease activity: −0.0077±0.025
  Estimate, weekly MTX dose vs percentage change from baseline in physician's assessment of disease activity: 0.029±0.012
[1]; visit 6, median dose 17.5 mg weekly
  Non-responders, number of patients: three
[1]; visit 6, n=34
  Median decrease (from baseline) in DAS28: 41%
[1]; visit 6, n=35
  Median decrease (from baseline) in physician's assessment of disease activity VAS: 52%
[1]; visit 6, of the responders
  Responders with moderate response: 32%
[2]; 97 patients on MTX
  Patients presenting with a high disease activity: 47%
[2]; 97 patients, median 30 months under methotrexate
  Disease activity score (DAS28), median: 5.04
[3]; baseline to visit 4
  Estimate, percentage change in DAS28 vs percentage change in folate PG levels: 0.32±0.10
  Estimate, percentage change in physician's assessment VAS vs percentage change in folate PG levels: 0.71±0.22
[3]; baseline to visit 6
  Estimate, MTX dose vs decrease in RBC folate PGs: 0.0324±0.014
  Estimate, MTXPG levels vs decrease in RBC folate PGs: −0.009±0.003
[3]; dose 7.5 to 15 mg/week with MTXPG increase of 40 nmol/L RBCs at visit 6, from model equation
  Decrease in folate levels: 11.7%
[3]; fourth study visit, n=43 (initial 1222)
  Median RBC folate PG levels: 1065 nmol/L RBCs
[3]; efficacy index above 1
  RBC folate PG decrease versus baseline: 14%
  RBC folate PG levels: 1257 ± 70 nmol/L
[3]; efficacy index of 0
  RBC folate PG decrease versus baseline: 36%
  RBC folate PG levels: 886 ± 59 nmol/L
[3]; efficacy index of 1
  RBC folate PG decrease versus baseline: 42%
  RBC folate PG levels: 1168 ± 70 nmol/L
[3]; sixth visit
  Median RBC folate PG levels: 994 nmol/L RBCs
[3]; visit 4
  Likelihood of response to MTX, decrease in RBC folate PGs vs no change or increase: 8 fold and 7.7 fold
[4]; 2 severe lethargy, 2 severe dyspepsia
  Patients who experienced a severe side-effect in one of the study visits, number: 4
[4]; 48 patients
  Signs of hematological toxicity: None of the patients
[4]; 48 patients, 4 to 6 visits
  AST >40 U/L: median of percentage of study visits with side-effect per patient: 0%
  All side-effects: median of percentage of study visits with side-effect per patient: 50%
  Alopecia: median of percentage of study visits with side-effect per patient: 0%
  Alopecia: number of patients (% total) with at least one study visit with side-effect: 4 (8%)
  Central nervous system: median of percentage of study visits with side-effect per patient: 25%
  Central nervous system: number of patients (% total) with at least one study visit with side-effect: 30 (63%)
  Cough: median of percentage of study visits with side-effect per patient: 0%
  Cough: number of patients (% total) with at least one study visit with side-effect: 12 (25%)
  Dyspnea: median of percentage of study visits with side-effect per patient: 0%
  Dyspnea: number of patients (% total) with at least one study visit with side-effect: 1 (2.1%)
  Gastrointestinal tract: median of percentage of study visits with side-effect per patient: 25%
  Gastrointestinal tract: number of patients (% total) with at least one study visit with side-effect: 33 (69%)
  Headache: median of percentage of study visits with side-effect per patient: 0%
  Headache: number of patients (% total) with at least one study visit with side-effect: 14 (29%)
  Lethargy: median of percentage of study visits with side-effect per patient: 17%
  Lethargy: number of patients (% total) with at least one study visit with side-effect: 27 (56%)
  diarrhea: median of percentage of study visits with side-effect per patient: 0%
  diarrhea: number of patients (% total) with at least one study visit with side-effect: 15 (31%)
  dyspepsia: median of percentage of study visits with side-effect per patient: 0%
  dyspepsia: number of patients (% total) with at least one study visit with side-effect: 16 (33%)
  nausea: median of percentage of study visits with side-effect per patient: 0%
  nausea: number of patients (% total) with at least one study visit with side-effect: 22 (46%)
  stomatitis: median of percentage of study visits with side-effect per patient: 0%
  stomatitis: number of patients (% total) with at least one study visit with side-effect: 5 (10%)
[4]; [8]
  Estimate, percentage of 4 week periods with all side-effects: 0.20 ± 0.09
  Estimate, percentage of 4 week periods with central nervous system side-effects: 0.11 ± 0.09
  Estimate, percentage of 4 week periods with gastrointestinal side-effects: 0.29 ± 0.08
[4]; [9]
  Estimate, percentage of 4 week periods with all side-effects: 0.18 ± 0.10
  Estimate, percentage of 4 week periods with central nervous system side-effects: 0.21 ± 0.10
  Estimate, percentage of 4 week periods with gastrointestinal side-effects: 0.25 ± 0.09
[4]; [10]
  Estimate, percentage of 4 week periods with all side-effects: 0.22 ± 0.10
  Estimate, percentage of 4 week periods with central nervous system side-effects: 0.16 ± 0.09
  Estimate, percentage of 4 week periods with gastrointestinal side-effects: 0.28 ± 0.09
[4]; baseline to visit 4
  Increase in MCV above 120 fl: none of the patients
[4]; both at the fourth visit
  Patients requiring MTX dosage interruption, number: Two
[4]; generalized linear model
  Estimate, MTX dose administered vs occurrence of central nervous system side-effects: 0.186
[4]; visit 4
  Median increase in MCV from baseline: 3.5%
[4]; visit 4 (baseline 89 fl)
  Erythrocyte mean corpuscular volume (MCV), median: 93 fL
[4]; visit 6
  MCV of the only one patient above 120 fl: 124 fL
  Median increase in MCV: 3.7%
[5]; 97 patients
  Patients with high disease activity and side-effects, number: 18
[5]; 97 patients on MTX at least one month, single study visit
  Overall side-effects, number of patients: 40
[5]; [11]
  AST >40 U/L, % of patients: (6.1%)
  AST >40 U/L, number of patients: 6
  Alopecia, % of patients: (17.5%)
  Alopecia, number of patients: 17
  Central nervous system side-effects, % of patients: (11.3%)
  Central nervous system side-effects, number of patients: 11
  Diarrhea, % of patients: (6.2%)
  Diarrhea, number of patients: 6
  Dyspepsia, % of patients: (7.2%)
  Dyspepsia, number of patients: 7
  Elevation of AST twice the upper normal value, pulmonary toxicity, or hematopoietic toxicity: None of the patients
  Gastrointestinal tract side-effects, % of patients: (24.7%)
  Gastrointestinal tract side-effects, number of patients: 24
  Headache, % of patients: (5.1%)
  Headache, number of patients: 8
  Lethargy, % of patients: (8.2%)
  Lethargy, number of patients: 8
  Nausea, % of patients: (9.2%)
  Nausea, number of patients: 9
  Severity of side-effects: mild and did not require MTX withdrawal
  Stomatatis, % of patients: (3.1%)
  Stomatatis, number of patients: 3
[5]; of patients with high disease activity, at the time of the visit
  Patients with high disease activity also experiencing a side-effect: 39%
[5]; patients with MTHFR 677C/T or 677C/C genotype
  Occurrence of central nervous system side-effects: 9.0%
[5]; patients with MTHFR 677T/T genotype
  Occurrence of central nervous system side-effects: 62.5%
[5]; toxicogenetic index of 0
  Patients presenting with a side-effect: 17%
